A word on the Ki: it is a measure of affinity in units of concentration, obtained from inhibition or displacement. A higher Ki goes with a looser hold on the target.

The experiment deals with T1, 5-hydroxytryptamine receptor 1A (Rattus norvegicus, UniProt P19327).
T1 sequence (P19327 whole entry): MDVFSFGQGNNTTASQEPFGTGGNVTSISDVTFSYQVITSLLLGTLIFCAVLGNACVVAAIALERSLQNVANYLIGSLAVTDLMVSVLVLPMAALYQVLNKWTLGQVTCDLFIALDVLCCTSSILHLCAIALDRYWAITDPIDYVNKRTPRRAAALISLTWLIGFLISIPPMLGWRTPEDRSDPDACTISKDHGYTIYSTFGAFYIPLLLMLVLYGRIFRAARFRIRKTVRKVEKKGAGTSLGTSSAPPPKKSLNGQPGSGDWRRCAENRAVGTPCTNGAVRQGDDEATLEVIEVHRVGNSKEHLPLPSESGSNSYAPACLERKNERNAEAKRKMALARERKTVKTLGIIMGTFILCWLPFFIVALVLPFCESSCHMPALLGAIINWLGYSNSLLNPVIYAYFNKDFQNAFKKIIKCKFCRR
Put plainly: Inhibitory affinity constant against 5-hydroxytryptamine 1A receptor.

Compound `CC1(C)CC(=O)N(CCCCN2CCN(c3ccc4ccccc4n3)CC2)C(=O)C1` returned a Ki of 10.5 nM.

The values above are taken from ChEMBL document CHEMBL1128360 (J Med Chem, 1995).
